From patent US20150119391A1, “ANTI-TUMORAL COMPOSITION COMPRISING THE COMPOUND 1-(6--1,3-BENZOTHIAZOL-2-YL)-3-(2-MORPHOLIN-4-YLETHYL)UREA” (SANOFI, priority 2012, published 2015)
In brackets after ≈: the same amount, converted by molar mass. Like-named read-outs stand apart in the source and are kept apart here.

Legend:
solubility in water = assay type: physicochemical
pKa (weak base) = assay type: physicochemical
[1] = Biopharmaceutics Classification System class / permeability characteristics; assay type: physicochemical
[2] = tested on: human Met-driven tumor cell lines; assay: in vitro anti-proliferative activity; assay type: cell-based; settings: (nM), Met-driven tumor cell lines exclusively
[3] = tested on: human Met-amplified models; assay: cellular anti-tumor activity as a single agent; assay type: cell-based
[4] = stability to steam sterilization; assay type: physicochemical
Experimental: The concentrated pharmaceutical composition is prepared by usual methods for the preparation of aqueous liquid pharmaceutical composition. Generally, the process comprises a sterilization step, which is typically carried out by sterilizing filtration followed by aseptic filling.

In the case of `O=C(NCCN1CCOCC1)Nc1nc2ccc(Sc3nnc4ccc(-c5ccc(F)cc5)nn34)cc2s1` [Compound A, 1-(6-{[6-(4-fluorophenyl)[1,2,4]triazolo[4,3-b]pyridazin-3-yl]sulfanyl}-1,3-benzothiazol-2-yl)-3-(2-morpholin-4-ylethyl)urea], the solubility (solubility in water) is reported as < 0.1 µg/mL, the solubility (solubility in water; aqueous buffer, above pH 5) is reported as < 0.1 µg/mL and the solubility (solubility in water; pH 1, simulated gastric fluid) is reported as ~90 µg/mL (≈ 163 µM). The solubility (solubility in water; pH 3, aqueous buffer) was ~20 µg/mL (≈ 36.3 µM), the pKa (pKa (weak base)) was 6.4 and the permeability characteristics [1] was “poor”. The anti-proliferative activity [2] was “highly potent”, the cellular anti-tumor activity [3] was “highly potent” and the “chemical stability on steam sterilization” value [4] was “chemical degradation”.
